{
  "source": "paper PMC5511861",
  "about": "“DS16570511 is a small-molecule inhibitor of the mitochondrial calcium uniporter” (Cell Death Discovery, 2017)",
  "key": {"[1]": {"target": "T1, mitochondrial calcium uniporter (Homo sapiens, UniProt Q8NE86)", "T1 sequence (Q8NE86 51-351)": "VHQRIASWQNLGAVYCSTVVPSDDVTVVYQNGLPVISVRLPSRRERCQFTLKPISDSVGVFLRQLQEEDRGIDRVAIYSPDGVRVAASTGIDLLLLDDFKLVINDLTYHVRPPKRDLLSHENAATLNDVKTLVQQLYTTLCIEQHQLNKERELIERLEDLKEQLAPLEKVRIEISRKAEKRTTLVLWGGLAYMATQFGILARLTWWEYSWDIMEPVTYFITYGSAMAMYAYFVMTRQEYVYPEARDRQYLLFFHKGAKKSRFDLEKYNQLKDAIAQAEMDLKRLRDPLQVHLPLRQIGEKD", "T1 sequence (Q9H4I9 48-107 partner limits assumed)": "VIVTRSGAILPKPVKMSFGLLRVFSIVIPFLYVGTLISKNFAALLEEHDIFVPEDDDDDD", "test": "Aequorin assay: serum-induced mitochondrial Ca2+ influx in HEK293A cells expressing mitochondria-targeted aequorin", "type": "cell-based", "design": "endogenous in cells; host or cells: HEK293A cells stably expressing mitochondria-targeted aequorin", "conditions": "10% fetal bovine serum, 20 min pretreatment, read-out: IC50, inhibition of serum-induced mitochondrial Ca2+ influx", "description": "In the first screening using the cell-based assay, application of 10% fetal bovine serum to the cells triggered a rapid increase of mitochondrial Ca^2+ level (Figure 1a). Pretreatment of the cells with DS16570511 inhibited the serum-induced mitochondrial Ca^2+ influx with an IC50 of 7 μM (Figures 1a and b). In order to eliminate broad channel inhibitors or chemicals affecting the aequorin-based detection system, a counter assay was carried out using HEK293A cells expressing aequorin in cytosol. In the assay, the concentration of DS16570511 used to decrease the serum-induced cytosolic Ca^2+ increase by 50% was ~50 μM.\nFigure 1 DS16570511 inhibits mitochondrial Ca^2+ influx in HEK293A cells. (a) Representative raw data of serum-induced mitochondrial Ca^2+ influx in HEK293A cells. (b) Effect of DS16570511 on serum-induced mitochondrial Ca^2+ influx. The area under the curve of temporal aequorin activities is used for calculation of inhibitory activities. […]\nFor dynamic measurements of mitochondrial Ca^2+ levels in intact cells, HEK293A cells were stably transfected with pIRES-puro vector expressing mitochondria-targeted aequorin.[20] […] For induction of intracellular Ca^2+, the cells were treated with 10% fetal bovine serum, and luminescence levels were measured by using a Centro LB960 luminometer (Berthold Technologies, Oak Ridge, TN, USA)."}, "[2]": {"target": "T2, MICU1 (Homo sapiens, UniProt Q9BPX6)", "T2 construct": "expressed in transfected cells; host or cells: HEK293A cells, transient co-transfection with the mitochondria-targeted aequorin vector", "T2 sequence (Q9BPX6 34-476)": "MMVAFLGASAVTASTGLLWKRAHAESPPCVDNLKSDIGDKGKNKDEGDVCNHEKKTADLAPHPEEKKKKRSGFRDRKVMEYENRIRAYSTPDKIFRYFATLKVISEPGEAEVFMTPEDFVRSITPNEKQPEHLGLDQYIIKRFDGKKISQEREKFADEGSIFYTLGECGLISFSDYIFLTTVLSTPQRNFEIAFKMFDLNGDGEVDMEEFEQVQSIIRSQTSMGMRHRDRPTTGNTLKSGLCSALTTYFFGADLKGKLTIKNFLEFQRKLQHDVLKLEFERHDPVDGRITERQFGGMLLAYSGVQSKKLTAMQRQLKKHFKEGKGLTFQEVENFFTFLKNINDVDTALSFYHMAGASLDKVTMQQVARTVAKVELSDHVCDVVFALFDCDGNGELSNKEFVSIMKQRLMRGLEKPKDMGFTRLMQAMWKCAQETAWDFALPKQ", "test": "MICU1-dependent mitochondrial Ca2+ influx in HEK293A cells overexpressing human MICU1", "type": "cell-based", "conditions": "HEK293A cells overexpressing MICU1, serum-induced", "excerpt": "Next, to investigate the molecular component of the mitochondrial calcium uniporter, MCU-dependent and MICU-dependent Ca^2+ influx were examined. […] The MCU-dependent increment of Ca^2+ influx was blocked by the DS16570511 pretreatment (Figure 5b). We then investigated the effects of the inhibitor on the regulatory subunit MICU1. Previous studies have shown that MICU1 facilitates mitochondrial Ca^2+ uptake through the presence of a high Ca^2+ level.[11],[22]\nFigure 5 DS16570511 inhibits mitochondrial Ca^2+ influx by MCU or MICU1. (a) Effect of overexpression of MCU or MICU1 on mitochondrial Ca^2+ influx in HEK293A cells. (b) Effect of DS16570511 on MCU-dependent mitochondrial Ca^2+ uptake in HEK293A cells. (c) Effect of DS16570511 on MICU1-dependent mitochondrial Ca^2+ uptake in HEK293A cells. […]\nIn order to evaluate mitochondrial Ca^2+ uptake activity by MCU or MICU1, HEK293A cells were transiently transfected with the mitochondria-targeted aequorin vector and pcDNA3.1 vector containing human Mcu (NCBI Reference Sequence: NM_138357.2) or Micu1 (NM_001195518.1). One day after the transfection, the luminescence levels were measured as described above. MCU- or MICU1-dependent activity was calculated by subtracting the luminescence level of cells transfected with empty vector from that of cells expressing MCU or MICU1, respectively."}, "[3]": {"test_system": "membrane potential of pig heart mitochondria", "test": "Mitochondrial membrane potential assay (JC-10) in pig heart mitochondria", "type": "biochemical", "conditions": "JC-10, 5 min incubation", "excerpt": "Next we analyzed the mechanism of action of DS16570511. The previous studies implicated two possible inhibitory mechanisms for the mitochondrial Ca^2+ uptake: (1) direct blockade of the calcium uniporter and (2) disruption of the membrane potential.[20],[21] Mitochondrial Ca^2+ uptake is mediated by electrical potential across the mitochondrial inner membrane, which is generated by the oxidative phosphorylation system. […] To examine effects on the mitochondrial membrane potential, fluorescent indicator JC-10 was used in mitochondria from pig heart.\n(a) Effect of FCCP on Ca^2+ uptake of pig heart mitochondria. […] Relative membrane potential 0 or 100% is defined as value of 1 μM FCCP-treated mitochondria or vehicle-treated mitochondria, respectively. Data are mean with S.E.M. from three (a) or four (b) independent samples.\nPig heart mitochondria were prepared as described above and suspended in the swelling buffer containing 1 μM JC-10. The protein concentration of the solution was 5 mg/ml. Five minutes after incubation of the mitochondria with DS16570511 at room temperature, fluorescence intensities were measured by a FlexStation 3 (Molecular Devices, LLC, Sunnyvale, CA, USA) using the green channel (excitation/emission wavelength: 485/538 nm) or the red channel (excitation/emission wavelength: 485/612 nm)."}},
  "note": "pIC50: −log10 of the molar value.",
  "data": [
    {"smiles": "Cc1onc(-c2c(Cl)cccc2Cl)c1CNc1cccc(C(=O)c2cn(CCCC(=O)O)c3ccccc23)c1", "note": "[DS16570511]", "values": [
      {"measurement": "pIC50", "setting": "[1]", "result": 5.15},
      {"measurement": "effect on MICU1-dependent activation of the uniporter", "setting": "[2]", "result": "blocked by DS16570511 in a dose-dependent manner"},
      {"measurement": "effect on mitochondrial membrane potential", "setting": "[3]", "result": "not reduced"}
    ]}
  ]
}
